Test results published in ChEMBL document CHEMBL5230103, “Hydroxamic acid hybrids as the potential anticancer agents: An Overview” (Eur J Med Chem, 2020).
Counter-ions that a name gives are not always drawn. Each block holds one compound with its values, some of them ahead of it.

Legend:
HepG2 = assay: Cytotoxicity against human HepG2 cells assessed as inhibition of cell growth by MTT assay; type: functional, cell-based
EJ = assay: Cytotoxicity against human EJ cells assessed as inhibition of cell growth by MTT assay; type: functional, cell-based
MCF7 [1] = assay: Cytotoxicity against human MCF7 cells assessed as inhibition of cell growth by MTT assay; type: functional, cell-based
SMMC-7721 = assay: Cytotoxicity against human SMMC-7721 cells assessed as inhibition of cell growth by MTT assay; type: functional, cell-based
NCI-H460 = assay: Cytotoxicity against human NCI-H460 cells assessed as inhibition of cell growth by MTT assay; type: functional, cell-based
Histone deacetylase 2 = Histone deacetylase 2 (Homo sapiens, UniProt Q92769); assay: Inhibition of HDAC2 (unknown origin)
Histone deacetylase 2, sequence (Q92769 whole entry): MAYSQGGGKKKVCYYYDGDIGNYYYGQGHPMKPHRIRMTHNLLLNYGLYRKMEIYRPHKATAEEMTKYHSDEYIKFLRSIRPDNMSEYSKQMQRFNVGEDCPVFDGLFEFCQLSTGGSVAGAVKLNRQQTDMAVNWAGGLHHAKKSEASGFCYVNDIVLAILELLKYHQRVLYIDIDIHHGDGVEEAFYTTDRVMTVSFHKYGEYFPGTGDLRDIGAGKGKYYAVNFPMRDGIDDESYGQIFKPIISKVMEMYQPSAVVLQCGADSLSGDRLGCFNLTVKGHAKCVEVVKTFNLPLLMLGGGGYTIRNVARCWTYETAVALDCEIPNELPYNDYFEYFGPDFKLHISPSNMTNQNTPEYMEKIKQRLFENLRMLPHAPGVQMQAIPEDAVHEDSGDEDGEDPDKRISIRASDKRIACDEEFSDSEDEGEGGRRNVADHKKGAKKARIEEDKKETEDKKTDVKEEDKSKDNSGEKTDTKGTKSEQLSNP

SW-620 [2] = assay: Potency index, ratio of vorinostat IC50 to test compound IC50 for cytotoxicity against human SW620 cells assessed as inhibition of cell growth by SRB assay; type: functional
ASPC1 [3] = assay: Cytotoxicity against human ASPC1 cells assessed as inhibition of cell growth by SRB assay; type: functional, cell-based
SW-620 [4] = assay: Cytotoxicity against human SW620 cells assessed as inhibition of cell growth by SRB assay; type: functional, cell-based
ASPC1 [5] = assay: Potency index, ratio of vorinostat IC50 to test compound IC50 for cytotoxicity against human ASPC1 cells assessed as inhibition of cell growth by SRB assay; type: functional
PC-3 [6] = assay: Cytotoxicity against human PC-3 cells assessed as inhibition of cell growth by SRB assay; type: functional, cell-based
PC-3 [7] = assay: Potency index, ratio of vorinostat IC50 to test compound IC50 for cytotoxicity against human PC-3 cells assessed as inhibition of cell growth by SRB assay; type: functional
PC-3 [8] = assay: Potency index, ratio of vorinostat IC50 to test compound IC50 for cytotoxicity against human PC-3 cells assessed as inhibition of cell growth by MTT assay; type: functional
NCI-H23 [9] = assay: Potency index, ratio of vorinostat IC50 to test compound IC50 for cytotoxicity against human NCI-H23 cells assessed as inhibition of cell growth by MTT assay; type: functional
PC-3 [10] = assay: Cytotoxicity against human PC-3 cells assessed as inhibition of cell growth by MTT assay; type: functional, cell-based
Histone deacetylase = assay: Inhibition of HDAC (unknown origin); type: protein assay, Homo sapiens
NCI-H23 [11] = assay: Cytotoxicity against human NCI-H23 cells assessed as inhibition of cell growth by MTT assay; type: functional, cell-based
SW-620 [12] = assay: Cytotoxicity against human SW620 cells assessed as inhibition of cell growth by MTT assay; type: functional, cell-based
SW-620 [13] = assay: Potency index, ratio of vorinostat IC50 to test compound IC50 for cytotoxicity against human SW620 cells assessed as inhibition of cell growth by MTT assay; type: functional
HCT-116 [14] = assay: Cytotoxicity against human HCT-116 cells assessed as inhibition of cell growth by MTT assay; type: functional, cell-based
[15] = Cytotoxicity against human MCF7/Topo cells assessed as inhibition of cell growth by MTT assay; type: functional, cell-based
KB-V1 = assay: Cytotoxicity against human vinblastine resistant KB-V1 cells assessed as inhibition of cell growth by MTT assay; type: functional, cell-based
PANC-1 = assay: Cytotoxicity against human PANC-1 cells assessed as inhibition of cell growth by MTT assay; type: functional, cell-based
518A2 = assay: Cytotoxicity against human 518A2 cells assessed as inhibition of cell growth by MTT assay; type: functional, cell-based
[16] = Cytotoxicity against chicken heart fibroblast cells; type: toxicity, cell-based, Gallus gallus
HT-29 = assay: Cytotoxicity against human HT-29 cells assessed as inhibition of cell growth by MTT assay; type: functional, cell-based
HCT-116 [17] = assay: Cytotoxicity against human HCT-116 cells assessed as inhibition of cell growth by SRB assay; type: functional, cell-based
A549 = assay: Cytotoxicity against human A549 cells assessed as inhibition of cell growth by SRB assay; type: functional
[18] = target: Histone deacetylase (Homo sapiens) (UniProt Q13547+O15379+Q9UBN7+Q92769+Q9UQL6+Q8WUI4+Q9BY41+Q96DB2+P56524+Q9UKV0+Q969S8); assay: Potency index, ratio of vorinostat IC50 to test compound IC50 for inhibition of HDAC (unknown origin); type: protein assay
Hep 3B2 = assay: Cytotoxicity against human Hep3B cells assessed as inhibition of cell growth by MTT assay; type: functional
MCF7 [19] = assay: Cytotoxicity against human MCF7 cells assessed as inhibition of cell growth by SRB assay; type: functional, cell-based
ES-2 = assay: Cytotoxicity against human ES2 cells assessed as inhibition of cell growth by MTT assay; type: functional, cell-based
U-937 [20] = assay: Cytotoxicity against human U-937 cells assessed as inhibition of cell growth by MTT assay; type: functional, cell-based
K562 = assay: Cytotoxicity against human K562 cells assessed as inhibition of cell growth by MTT assay; type: functional, cell-based
PLC-PRF-5 = assay: Cytotoxicity against human PLC-PRF-5 cells assessed as inhibition of cell growth by MTT assay; type: functional, cell-based
SH-SY5Y = assay: Antiproliferative activity against human SH-SY5Y cells assessed as inhibition of cell growth by MTT assay; type: functional, cell-based
HL-60 = assay: Antiproliferative activity against human HL-60 cells assessed as inhibition of cell growth by MTT assay; type: functional, cell-based
NCI-H929 = assay: Antiproliferative activity against human NCI-H929 cells assessed as inhibition of cell growth by MTT assay; type: functional, cell-based
Histone deacetylase 3 = Histone deacetylase 3 (Homo sapiens, UniProt O15379); assay: Inhibition of HDAC3 (unknown origin)
Histone deacetylase 3, sequence (O15379 whole entry): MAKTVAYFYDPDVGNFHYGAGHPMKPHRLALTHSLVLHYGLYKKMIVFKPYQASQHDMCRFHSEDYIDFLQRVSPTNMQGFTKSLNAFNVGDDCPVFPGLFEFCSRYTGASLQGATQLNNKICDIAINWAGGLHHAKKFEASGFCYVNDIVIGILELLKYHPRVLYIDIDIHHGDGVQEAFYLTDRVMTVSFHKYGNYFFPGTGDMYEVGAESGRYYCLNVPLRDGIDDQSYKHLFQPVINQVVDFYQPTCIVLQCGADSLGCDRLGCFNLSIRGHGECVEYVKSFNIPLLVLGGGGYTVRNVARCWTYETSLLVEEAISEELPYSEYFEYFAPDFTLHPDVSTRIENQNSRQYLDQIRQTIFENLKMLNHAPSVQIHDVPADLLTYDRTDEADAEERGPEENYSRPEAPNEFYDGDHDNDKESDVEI

[21] = target: T1, Protein deacetylase HDAC6 (Homo sapiens, UniProt Q9UBN7); assay: Inhibition of HDAC6 (unknown origin)
T1 sequence (Q9UBN7 whole entry): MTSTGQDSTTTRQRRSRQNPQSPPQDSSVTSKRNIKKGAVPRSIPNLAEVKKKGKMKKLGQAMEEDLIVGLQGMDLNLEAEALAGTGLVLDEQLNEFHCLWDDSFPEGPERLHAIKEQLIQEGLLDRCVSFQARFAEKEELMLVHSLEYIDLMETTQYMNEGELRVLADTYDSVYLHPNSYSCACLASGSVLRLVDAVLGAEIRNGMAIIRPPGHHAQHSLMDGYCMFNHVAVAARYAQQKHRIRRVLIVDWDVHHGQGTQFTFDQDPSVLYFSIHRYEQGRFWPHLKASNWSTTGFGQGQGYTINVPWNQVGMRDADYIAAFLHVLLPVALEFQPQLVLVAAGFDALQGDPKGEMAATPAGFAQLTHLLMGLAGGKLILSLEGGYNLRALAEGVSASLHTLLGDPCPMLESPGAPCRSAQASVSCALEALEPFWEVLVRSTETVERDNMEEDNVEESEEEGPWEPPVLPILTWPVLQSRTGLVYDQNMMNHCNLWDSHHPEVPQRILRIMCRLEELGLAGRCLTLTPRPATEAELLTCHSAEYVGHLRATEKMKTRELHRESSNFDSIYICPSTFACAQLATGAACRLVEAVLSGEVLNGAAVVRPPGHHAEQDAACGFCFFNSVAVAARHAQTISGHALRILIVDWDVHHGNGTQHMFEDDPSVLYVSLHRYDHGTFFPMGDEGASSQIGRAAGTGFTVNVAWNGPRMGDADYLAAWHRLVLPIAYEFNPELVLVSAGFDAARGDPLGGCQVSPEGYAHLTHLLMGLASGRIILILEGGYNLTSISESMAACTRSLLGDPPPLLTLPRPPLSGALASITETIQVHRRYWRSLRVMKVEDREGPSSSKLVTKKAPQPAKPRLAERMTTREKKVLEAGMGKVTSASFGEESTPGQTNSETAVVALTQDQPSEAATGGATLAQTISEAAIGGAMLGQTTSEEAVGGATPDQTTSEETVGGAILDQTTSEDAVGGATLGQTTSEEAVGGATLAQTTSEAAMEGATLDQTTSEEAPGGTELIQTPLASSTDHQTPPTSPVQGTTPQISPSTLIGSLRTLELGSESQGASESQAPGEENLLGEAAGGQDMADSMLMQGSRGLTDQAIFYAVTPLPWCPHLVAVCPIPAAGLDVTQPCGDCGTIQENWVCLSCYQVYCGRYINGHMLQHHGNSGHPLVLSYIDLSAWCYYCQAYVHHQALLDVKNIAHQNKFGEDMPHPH

U-937 [22] = assay: Antiproliferative activity against human U-937 cells assessed as inhibition of cell growth by MTT assay; type: functional, cell-based
U-266 = assay: Antiproliferative activity against human U-266 cells assessed as inhibition of cell growth by MTT assay; type: functional, cell-based
Histone deacetylase 8 = Histone deacetylase 8 (Homo sapiens, UniProt Q9BY41); assay: Inhibition of HDAC8 (unknown origin)
Histone deacetylase 8, sequence (Q9BY41 whole entry): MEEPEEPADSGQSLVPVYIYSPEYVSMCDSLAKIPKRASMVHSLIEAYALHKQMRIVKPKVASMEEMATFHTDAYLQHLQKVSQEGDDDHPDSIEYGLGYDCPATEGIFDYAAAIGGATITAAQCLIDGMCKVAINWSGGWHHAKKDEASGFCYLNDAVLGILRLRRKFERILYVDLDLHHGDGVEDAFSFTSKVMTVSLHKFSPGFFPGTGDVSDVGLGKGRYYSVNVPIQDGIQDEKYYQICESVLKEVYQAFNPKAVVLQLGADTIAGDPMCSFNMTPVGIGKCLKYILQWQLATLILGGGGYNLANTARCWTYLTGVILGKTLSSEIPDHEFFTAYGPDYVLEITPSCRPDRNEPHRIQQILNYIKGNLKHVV

Histone deacetylase 1 = Histone deacetylase 1 (Homo sapiens, UniProt Q13547); assay: Inhibition of HDAC1 (unknown origin)
Histone deacetylase 1, sequence (Q13547 whole entry): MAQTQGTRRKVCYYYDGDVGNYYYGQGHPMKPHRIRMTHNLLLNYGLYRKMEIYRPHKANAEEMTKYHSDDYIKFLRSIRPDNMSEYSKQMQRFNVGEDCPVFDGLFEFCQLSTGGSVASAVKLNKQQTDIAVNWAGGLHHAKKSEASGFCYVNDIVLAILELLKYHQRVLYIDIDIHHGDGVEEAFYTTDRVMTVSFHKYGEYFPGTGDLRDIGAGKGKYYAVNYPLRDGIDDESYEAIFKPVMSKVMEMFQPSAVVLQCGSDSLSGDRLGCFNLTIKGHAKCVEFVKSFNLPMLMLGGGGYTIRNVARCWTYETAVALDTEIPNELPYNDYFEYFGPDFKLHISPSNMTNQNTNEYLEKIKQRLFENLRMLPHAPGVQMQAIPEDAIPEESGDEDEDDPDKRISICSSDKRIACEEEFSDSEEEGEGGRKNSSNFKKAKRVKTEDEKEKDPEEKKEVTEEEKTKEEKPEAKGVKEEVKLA

MCF7 [23] = assay: Antiproliferative activity against human MCF7 cells assessed as inhibition of cell growth by MTT assay; type: functional, cell-based

Compound: CC(C)=CCC/C(C)=C/CC/C(C)=C/CSc1ccccc1C(=O)NCCC(=O)NO
IC50 (HepG2): 4930 nM
IC50 (EJ): 4930 nM
IC50 (MCF7 [1]): 4930 nM
IC50 (SMMC-7721): 4930 nM
IC50 (NCI-H460): 4930 nM

Compound: CO/N=C1\CN(Cc2ccc(/C=C/C(=O)NO)cc2)c2ccc(F)cc21
IC50 (Histone deacetylase 2): 267 nM
Ratio IC50 (SW-620 [2]): 1.8
IC50 (ASPC1 [3]): 470 nM
IC50 (SW-620 [4]): 470 nM
Ratio IC50 (ASPC1 [5]): 1.8
IC50 (PC-3 [6]): 470 nM
Ratio IC50 (PC-3 [7]): 1.8

IC50 (Histone deacetylase): 150 nM
Compound: O=C(/C=C/c1ccc(Cn2cnc3cc(F)ccc3c2=O)cc1)NO
Ratio IC50 (PC-3 [8]): >3
Ratio IC50 (NCI-H23 [9]): >3
IC50 (PC-3 [10]): 620 nM
IC50 (NCI-H23 [11]): 620 nM
IC50 (SW-620 [12]): 620 nM
Ratio IC50 (SW-620 [13]): >3

IC50 (Histone deacetylase): 370 nM
Compound: COc1cc2ncn(Cc3ccc(C(=O)NO)cc3)c(=O)c2cc1OC
Ratio IC50 (PC-3 [8]): >3
Ratio IC50 (NCI-H23 [9]): >3
IC50 (PC-3 [10]): 620 nM
IC50 (NCI-H23 [11]): 620 nM
IC50 (SW-620 [12]): 620 nM
Ratio IC50 (SW-620 [13]): >3

Compound: COc1ccc(-c2ncn(C)c2-c2ccc(/C=C/C(=O)NO)cc2)cc1
IC50 (HCT-116 [14]): 300 nM
IC50 [15]: 300 nM
IC50 (KB-V1): 300 nM
IC50 (PANC-1): 300 nM
IC50 (518A2): 300 nM
IC50 [16]: > 150000 nM
IC50 (HT-29): 300 nM

Compound: CC(C)=CCC/C(C)=C/CC/C(C)=C/CSc1ccccc1C(=O)O [SALIRASIB]
IC50 (HepG2): 48600 nM
IC50 (EJ): 48600 nM
IC50 (SMMC-7721): 48600 nM
IC50 (NCI-H460): 48600 nM

Compound: CC(C)=CCC/C(C)=C/CC/C(C)=C/CSc1ccccc1C(=O)NCCCC(=O)NO
IC50 (HepG2): 4930 nM
IC50 (EJ): 4930 nM
IC50 (MCF7 [1]): 4930 nM
IC50 (SMMC-7721): 4930 nM
IC50 (NCI-H460): 4930 nM

Ratio IC50 [18]: 35
IC50 (Histone deacetylase): 3.4 nM
Compound: Cc1c(CCNS(=O)(=O)c2ccc(/C=C/C=C/C(=O)NO)cc2)c2ccccc2n1C
GI50 (HCT-116 [17]): 20 nM
GI50 (A549): 20 nM
GI50 (PC-3 [6]): 20 nM
GI50 (Hep 3B2): 20 nM

Compound: COc1cccc2c1C(=O)c1c(O)c3c(c(O)c1C2=O)C[C@@](O)(C(=O)CO)C[C@@H]3O[C@H]1C[C@H](N)[C@H](O)[C@H](C)O1 [DOXORUBICIN HYDROCHLORIDE]
GI50 (MCF7 [19]): 50200 nM

Compound: CC(C)C[C@H](NC(=O)[C@@H](O)[C@H](N)Cc1ccccc1)C(=O)O [UBENIMEX]
IC50 (HepG2): > 500000 nM
IC50 (PC-3 [10]): > 500000 nM
IC50 (ES-2): > 500000 nM
IC50 (U-937 [20]): > 500000 nM
IC50 (K562): > 500000 nM
IC50 (PLC-PRF-5): > 500000 nM

IC50 (Histone deacetylase): 170 nM
Compound: Cc1ccc2c(=O)n(Cc3ccc(/C=C/C(=O)NO)cc3)cnc2c1
Ratio IC50 (PC-3 [8]): >3
Ratio IC50 (NCI-H23 [9]): >3
IC50 (PC-3 [10]): 620 nM
IC50 (NCI-H23 [11]): 620 nM
IC50 (SW-620 [12]): 620 nM
Ratio IC50 (SW-620 [13]): >3

Compound: O=C(NO)c1cn(C2CCN(C(=O)Cc3ccc4ccccc4c3)CC2)nn1
IC50 (SH-SY5Y): 1200 nM
IC50 (HL-60): 1200 nM
IC50 (Histone deacetylase 2): 1000 nM
IC50 (NCI-H929): 1200 nM
IC50 (Histone deacetylase 3): 1000 nM
IC50 [21]: 1000 nM
IC50 (U-937 [22]): 1200 nM
IC50 (U-266): 1200 nM
IC50 (Histone deacetylase 8): 1000 nM
IC50 (Histone deacetylase 1): 1000 nM
IC50 (MCF7 [23]): 1200 nM
